Legend:
[1] = tested on: male German Cockroach; test: Time to kill: five microliters applied to the sternum, time to death recorded (stopped at one hour); assay type: in vivo; conditions: five microliters on sternum
Protocol: Five microliters of the oil or oil blend listed in the table below were applied to the sternum of a male German Cockroach, and the time to death was recorded (time keeping was stopped at one hour). Sample size N=60 for Blend 24 and N=40 for each of the oil components. Components were diluted with acetone. Five microliters of the oil or oil blend listed in the table below were applied to the sternum of a male German Cockroach, and the time to death was recorded (time keeping was stopped at one hour). Sample size N=60 for Blend 41 and each of the oil components. Components were diluted with acetone. Five microliters of the oil or oil blend listed in the table below were applied to the sternum of a male German Cockroach, and the time to death was recorded (time keeping was stopped at one hour). Sample size N=40 for Blend 41 and each of the oil components. Components were diluted with acetone.

[2] = tested on: olfactory receptor activation in Drosophila S2 cells; test: Ca2+ release triggered by olfactory receptor activation in Drosophila S2 cells; assay type: cell-based
Excerpt: In embodiments of the present invention, a Drosophila Schneider 2 (S2) cell line is stably transfected with a G protein-coupled receptor that is amplified from Drosophila melanogaster head cDNA phage library. The cell line can be used to screen potential active ingredients, as described below.
The potential for insect control activity can be identified by measuring the affinity of the test compositions for the receptor in the cell lines expressing a TyrR, Or83b, and/or Or43a. The potential for insect control activity can also be identified by measuring the change in intracellular cAMP and/or Ca2+ in the cell lines expressing TyrR, Or83b, and/or Or43a following treatment with the test compositions. The gene sequences of the TyrR, the Or 83b receptor and the Or 43a receptor have substantial similarity between various insect species. As such, the Drosophila Schneider cell lines expressing these receptors can be used to screen for compositions having insect control activity in various insect species.
A blend can is prepared and combined with a synthetic pyrethroid such as delatmetrhin. For example, Blend 41 was combined with deltamethrin (DM) and the efficacy of Blend 41 and DM individually were compared to the efficacy of Blend 41 and DM combined. […]

[3] = tested on: German Cockroach; test: Bioactivity of Blend 13, deltamethrin and combination; assay type: in vivo
[4] = tested on: American cockroaches; test: Treated jar test, knockdown and mortality time: Blend 41, deltamethrin, combination; assay type: in vivo, American cockroach; conditions: average of 3 replicates, 5 roaches each
Protocol: To test efficacy of the composition, a small amount of each test chemical is introduced to a separate jar. About 3 to 5 American cockroaches are introduced to each jar at different time intervals. Mortality and/or immobilization (knockdown, KD) data is recorded and compared. Such data is recorded as seconds (s) following introduction of the insect to the treated jar. The resulting data is contained in the following table.
The data is the average of 3 replicates, 5 roaches in each replicate.

[5] = tested on: Drosophila S2 cells; test: cAMP response in cells treated with Blend 41, imidacloprid and combinations; assay type: cell-based
Excerpt: FIG. 23 is a bar graph showing percent knockdown in response to treatment of Aedes aegypti with various compositions of including Blend 41 alone, Imidacloprid alone, and combinations of Blend 41 and Imidacloprid. FIG. 24 is a bar graph showing percent knockdown in response to treatment of Aedes aegypti with various compositions of including Blend 41 alone, Imidacloprid alone, and combinations of Blend 41 and Imidacloprid. FIG. 25 is a bar graph showing cAMP signal produced in response to treatment of Drosophila S2 cells treated with various compositions of including Blend 41 alone, Imidacloprid alone, and combinations of Blend 41 and Imidacloprid.

[6] = tested on: American cockroaches; test: Residual activity of stabilized compositions, separate jar per time period; assay type: in vivo, American cockroach; conditions: tested about 48 hours after application; separate jar per time point
Protocol: In studies where treatment jars are reused at various time intervals, as described in Example 19, the materials in the jars are lost after each exposure due to contact with and transfer to the insect body, rather than via loss due to volatility of the material. As such, additional studies are conducted wherein a separate jar is prepared for each time period.
A solution of 5% thyme crystal (TC) is prepared in acetone and about 2 ml of the solution is applied to the bottom of five separate glass jars, one for each time point at which mortality is assessed. About 2 ml of six compositions (R1-R6), set forth above in Table 19-A, are each applied to the bottom of five separate jars. Thyme Crystals (5%, by weight) are combined with the six compositions (R1-R6) to produce six formulations. About 2 ml of each formulation is applied to five separate jars.
[…] Mortality is recorded about 24 hours after exposure. […] Mortality is recorded about 24 hours after each exposure.

[7] = tested on: American cockroaches; test: Residual activity of stabilized compositions, treated jars reused, mortality 24 hours after exposure; assay type: in vivo, American cockroach; conditions: tested about 48 hours after application
Protocol: A solution of 5% thyme crystals (TC) is prepared in acetone and about 2 ml of the solution is applied to the bottom of a glass jar. About 2 ml of six compositions (R1-R6), set forth in Table 19-A, are each applied to the bottom of a separate jar. Thyme Crystals (5%, by weight) are combined with the six compositions (R1-R6) to produce six formulations. About 2 ml of each formulation is applied to a separate jar.
[…] Mortality is recorded about 24 hours after exposure. All jars are kept under room temperature and reused at subsequent time points to evaluate residual activity. […] Mortality is recorded about 24 hours after each exposure.

C=C(C)[C@H]1CC=C(C)CC1 [D-Limonene]
Percent of Tested Insects > 1 hr Time to Death ([1]; component at 83%, diluted with acetone): 25%
Percent of Tested Insects > 1 hr Time to Death ([1]; component of Blend 31 diluted with acetone, concentration not given): 22.5%

CCCCCCCCCCCCCC(=O)OC(C)C [Isopropyl myristate, propan-2-yl tetradecanoate]
Percent of Tested Insects > 1 hr Time to Death ([1]; component at 40%, diluted with acetone): 100%

CN/C(=N\[N+](=O)[O-])NCc1cnc(Cl)s1 [clothianidin]
Ca2+ release, single agent alone [2]: increase in Ca^2+ release

CC1(C)[C@H](C(=O)O[C@H](C#N)c2cccc(Oc3ccccc3)c2)[C@@H]1C=C(Br)Br [deltamethrin]
Bioactivity 100% Kill [3]: 15 min
Bioactivity KD [3]: 120 s
100% Kill ([4]; time to 100% kill in treated jar): 12 min
KD ([4]; time to knockdown in treated jar): 140 s

O=[N+]([O-])NC1=NCCN1Cc1ccc(Cl)nc1 [imidacloprid]
cAMP ([5]; 100 PPM): 9.1 nM
cAMP ([5]; 333 PPM): 9.4 nM
cAMP ([5]; 500 PPM): 8.8 nM

Cc1ccc(C(C)C)c(O)c1 [thyme crystal]
residual activity [6]: does not have residual activity
residual activity [7]: does not have residual activity
